US8236301B2, “Lumican proteoglycan in the diagnosis and treatment of atherosclerosis” (The General Hospital Corporation, priority 2005, dated 2012)

Test system: human umbilical vein endothelial cells (HUVECs)
Settings: confluent HUVECs, single bolus of physiologic levels of H2O2, 5 hr
Experimental: HUVECs were treated with the indicated concentrations of H2O2 for 5 hours. The cells were harvested and the proteoglycans isolated and analyzed by Western blotting for lumican and biglycan.
Since lumican proteoglycan is deposited at enhanced levels in atherosclerosis-prone arteries, it is possible that lumican proteoglycan is generated by cultured human umbilical vein endothelial cells (HUVECs). The production of lumican proteoglycan by cultured human umbilical vein endothelial cells (HUVECs) was examined in vitro. Confluent HUVECs in complete media with serum and growth supplements were treated with a single bolus addition of varying concentrations of H2O2. After 5 hr the cells were washed and harvested as described previously (Kattapuram et al. (2005) Journal of Biological Chemnistry 280, 15340-15347). The proteoglycans were then extracted, isolated and analyzed by immunoblotting for lumican and biglycan.

## OO [H2O2, Hydrogen Peroxide]
  upregulation of biglycan (immunoblot): no upregulation
Vs resting conditions
  upregulation of Lumican-PG100 (immunoblot): substantial upregulation
